The results in this text go back to PubChem BioAssay AID248 (DTP/NCI, 2004).

Several values for one entry are separate records, joined by “and”; a condition that tells them apart may be missing. Equal entries are not always repeated. Inconclusive results and toxic doses are left out.

The assay relates to L1210 leukemia ip in BDF1 mice, survival T/C. Put plainly: NCI In Vivo Anticancer Drug Screen. Data for tumor model L1210 Leukemia (intraperitoneal) in B6D2F1 (BDF1) mice. As to conditions: endpoint: mean survival time, higher = longer survival. In outline: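 Antitumor effect is assessed in tumor-bearing animals. Survival in the compound arm is compared with a vehicle-dosed control arm and expressed as their quotient.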

Setting [1] is: dose: 100.0 mg/kg/injection, schedule: Q01DX001 (ip), vehicle: saline.
The mark [2] stands for this setting: dose: 200.0 mg/kg/injection, schedule: Q01DX001 (ip), vehicle: saline.
Where [3] appears, read: dose: 400.0 mg/kg/injection, schedule: Q01DX001 (ip), vehicle: saline.
Where [4] appears, read: dose: 50.0 mg/kg/injection, schedule: Q01DX001 (ip), vehicle: saline.

As to `CCOC(=O)c1ccc(NS(=O)(=O)c2ccc(Cl)cc2[N+](=O)[O-])cc1`, the T/C (dose: 100.0 mg/kg/injection, schedule: Q01DX001 (ip), vehicle: carboxymethylcellulose (CMC)) is 99 % of control; the T/C (dose: 100.0 mg/kg/injection, schedule: Q01DX009 (ip), vehicle: carboxymethylcellulose (CMC)) was 112 % of control and 88 % of control; the T/C (dose: 100.0 mg/kg/injection, schedule: Q04DX002 (ip), vehicle: carboxymethylcellulose (CMC)) was 96 % of control and 90 % of control; the T/C (dose: 100.0 mg/kg/injection, schedule: Q04DX003 (ip), vehicle: carboxymethylcellulose (CMC)) is 105 % of control; the T/C (dose: 200.0 mg/kg/injection, schedule: Q01DX001 (ip), vehicle: carboxymethylcellulose (CMC)) was 101 % of control; the T/C (dose: 200.0 mg/kg/injection, schedule: Q01DX009 (ip), vehicle: carboxymethylcellulose (CMC)) is 88 % of control and 89 % of control. Further, the T/C is, setting by setting: (dose: 200.0 mg/kg/injection, schedule: Q04DX002 (ip), vehicle: carboxymethylcellulose (CMC)) 93 % of control and 91 % of control; (dose: 200.0 mg/kg/injection, schedule: Q04DX003 (ip), vehicle: carboxymethylcellulose (CMC)) 102 % of control; (dose: 400.0 mg/kg/injection, schedule: Q01DX001 (ip), vehicle: carboxymethylcellulose (CMC)) 103 % of control; (dose: 400.0 mg/kg/injection, schedule: Q01DX009 (ip), vehicle: carboxymethylcellulose (CMC)) 88 % of control and 91 % of control; (dose: 400.0 mg/kg/injection, schedule: Q04DX002 (ip), vehicle: carboxymethylcellulose (CMC)) 93 % of control; (dose: 400.0 mg/kg/injection, schedule: Q04DX003 (ip), vehicle: carboxymethylcellulose (CMC)) 93 % of control.

As to `CCc1cc(O)c(Cl)c(C)c1Cl`, the T/C (dose: 50.0 mg/kg/injection, schedule: Q01DX009 (ip), vehicle: gum acacia) is 97 % of control; the T/C (dose: 50.0 mg/kg/injection, schedule: Q04DX003 (ip), vehicle: gum acacia) was 94 % of control; the T/C (dose: 100.0 mg/kg/injection, schedule: Q01DX009 (ip), vehicle: gum acacia) is 92 % of control; the T/C (dose: 100.0 mg/kg/injection, schedule: Q04DX003 (ip), vehicle: gum acacia) was 98 % of control; the T/C (dose: 200.0 mg/kg/injection, schedule: Q04DX003 (ip), vehicle: gum acacia) is 96 % of control.

`CC1(C2C3OC(=O)C2C2(O)CC4OC45C(=O)OC3C25C)CO1` (configuration not stated): the T/C was 92 % of control (dose: 25.0 mg/kg/injection, schedule: Q01DX009 (ip), vehicle: Klucel (hydroxypropylcellulose) (HPC)); 104 % of control (dose: 50.0 mg/kg/injection, schedule: Q01DX009 (ip), vehicle: Klucel (hydroxypropylcellulose) (HPC)); 95 % of control (dose: 100.0 mg/kg/injection, schedule: Q01DX009 (ip), vehicle: Klucel (hydroxypropylcellulose) (HPC)).

For `COC1OC(COC(C)=O)C(N(C)C(C)=O)C1OC(C)=O` (configuration not stated), the T/C runs as follows: under setting [1], 96 % of control; under setting [2], 90 % of control; under setting [3], 94 % of control.

Turning to `C=C(Cl)c1c(C)cc(C)c(CC#N)c1C`, the T/C is, setting by setting: (dose: 12.5 mg/kg/injection, schedule: Q01DX009 (ip), vehicle: DMSO) 92 % of control; (dose: 12.5 mg/kg/injection, schedule: Q04DX003 (ip), vehicle: DMSO) 87 % of control; (dose: 25.0 mg/kg/injection, schedule: Q01DX009 (ip), vehicle: DMSO) 92 % of control; (dose: 25.0 mg/kg/injection, schedule: Q04DX003 (ip), vehicle: DMSO) 93 % of control; (dose: 50.0 mg/kg/injection, schedule: Q04DX003 (ip), vehicle: DMSO) 93 % of control; (dose: 200.0 mg/kg/injection, schedule: Q04DX003 (ip), vehicle: DMSO) 87 % of control.

For `Nc1cc(C(=O)Nc2ccc(C3=NCCN3)cc2)ccc1C(=O)Nc1ccc(C2=NCCN2)cc1`, the T/C (dose: 0.49 mg/kg/injection, schedule: Q01DX Z (ip), vehicle: saline) was 107 % of control; the T/C (dose: 0.73 mg/kg/injection, schedule: Q01DX Z (ip), vehicle: saline) was 117 % of control; the T/C (dose: 2.5 mg/kg/injection, schedule: Q01DX Z (ip), vehicle: methylcellulose (MC)) is 103 % of control; the T/C (dose: 2.7 mg/kg/injection, schedule: Q01DX Z (ip), vehicle: carboxymethylcellulose (CMC)) is 153 % of control; the T/C (dose: 4.0 mg/kg/injection, schedule: Q01DX Z (ip), vehicle: carboxymethylcellulose (CMC)) is 162 % of control; the T/C (dose: 4.0 mg/kg/injection, schedule: Q01DX Z (ip), vehicle: methylcellulose (MC)) is 156 % of control. Besides, the T/C was 259 % of control (dose: 4.4 mg/kg/injection, schedule: Q01DX015 (ip), vehicle: carboxymethylcellulose (CMC)); 212 % of control (dose: 6.0 mg/kg/injection, schedule: Q01DX Z (ip), vehicle: carboxymethylcellulose (CMC)); 250 % of control (dose: 6.0 mg/kg/injection, schedule: Q01DX Z (ip), vehicle: methylcellulose (MC)); 329 % of control (dose: 6.6 mg/kg/injection, schedule: Q01DX015 (ip), vehicle: carboxymethylcellulose (CMC)); 247 % of control (dose: 9.0 mg/kg/injection, schedule: Q01DX Z (ip), vehicle: carboxymethylcellulose (CMC)); 200 % of control and 346 % of control (dose: 9.0 mg/kg/injection, schedule: Q01DX Z (ip), vehicle: methylcellulose (MC)). Besides, the T/C was 303 % of control (dose: 10.0 mg/kg/injection, schedule: Q01DX015 (ip), vehicle: carboxymethylcellulose (CMC)); 345 % of control (dose: 14.0 mg/kg/injection, schedule: Q01DX Z (ip), vehicle: carboxymethylcellulose (CMC)); 226 % of control and 329 % of control (dose: 14.0 mg/kg/injection, schedule: Q01DX Z (ip), vehicle: methylcellulose (MC)); 333 % of control (dose: 15.0 mg/kg/injection, schedule: Q01DX015 (ip), vehicle: carboxymethylcellulose (CMC)); 96 % of control (dose: 15.0 mg/kg/injection, schedule: Q01DX Z (oral), vehicle: carboxymethylcellulose (CMC)); 154 % of control and 279 % of control (dose: 20.0 mg/kg/injection, schedule: Q01DX Z (ip), vehicle: carboxymethylcellulose (CMC)). Also, the T/C by setting is: (dose: 20.0 mg/kg/injection, schedule: Q01DX Z (ip), vehicle: methylcellulose (MC)) 94 % of control; (dose: 30.0 mg/kg/injection, schedule: Q01DX Z (ip), vehicle: carboxymethylcellulose (CMC)) 152 % of control; (dose: 30.0 mg/kg/injection, schedule: Q01DX Z (oral), vehicle: carboxymethylcellulose (CMC)) 93 % of control; (dose: 45.0 mg/kg/injection, schedule: Q01DX Z (ip), vehicle: carboxymethylcellulose (CMC)) 101 % of control; (dose: 47.0 mg/kg/injection, schedule: Q01DX Z (ip), vehicle: methylcellulose (MC)) 86 % of control; (dose: 60.0 mg/kg/injection, schedule: Q01DX Z (oral), vehicle: carboxymethylcellulose (CMC)) 93 % of control. Also, the T/C by setting is: (dose: 120.0 mg/kg/injection, schedule: Q01DX Z (oral), vehicle: carboxymethylcellulose (CMC)) 117 % of control; (dose: 240.0 mg/kg/injection, schedule: Q01DX Z (oral), vehicle: carboxymethylcellulose (CMC)) 100 % of control; (dose: 480.0 mg/kg/injection, schedule: Q01DX Z (oral), vehicle: carboxymethylcellulose (CMC)) 94 % of control; (dose: 960.0 mg/kg/injection, schedule: Q01DX Z (oral), vehicle: carboxymethylcellulose (CMC)) 107 % of control.

Consider `C1CC2CN(CCCN3CCOCC3)C(C1)O2` (configuration not stated), for which the T/C is, setting by setting: under setting [4], 95 % of control; under setting [1], 101 % of control; under setting [2], 101 % of control; under setting [3], 97 % of control.

As to `NC(CSC(c1ccccc1)(c1ccccc1)c1ccc(F)cc1)C(=O)O` (configuration not stated), the T/C by setting is: (dose: 5.5 mg/kg/injection, schedule: Q01DX009 (ip), vehicle: saline) 117 % of control; (dose: 8.2 mg/kg/injection, schedule: Q01DX009 (ip), vehicle: saline) 117 % of control; (dose: 50.0 mg/kg/injection, schedule: Q01DX009 (ip), vehicle: saline) 161 % of control; (dose: 100.0 mg/kg/injection, schedule: Q01DX009 (ip), vehicle: other) 100 % of control.

With `CCCCCCCCCCCCCCCCC1Cc2ccccc2C1`, the T/C runs as follows: under setting [4], 98 % of control; under setting [1], 101 % of control; under setting [2], 107 % of control; under setting [3], 101 % of control.

Take `COc1cc(Cn2cccc2/C=N/NC(N)=S)cc(OC)c1`: the T/C runs as follows: (dose: 25.0 mg/kg/injection, schedule: Q04DX002 (ip), vehicle: Klucel (hydroxypropylcellulose) (HPC)) 105 % of control; (dose: 50.0 mg/kg/injection, schedule: Q04DX002 (ip), vehicle: Klucel (hydroxypropylcellulose) (HPC)) 111 % of control; (dose: 100.0 mg/kg/injection, schedule: Q04DX002 (ip), vehicle: Klucel (hydroxypropylcellulose) (HPC)) 111 % of control.
